Measurements as given in the supplement of paper PMC10307832.

How the values were obtained:
Assay in all cases: relative viability (nuclei count vs DMSO), 5 days (fraction); higher = more cells survive
[1] = compound: C1COCCN1C2=NC(=NC3=C2OC4=C3C=CC=N4)C5=CC(=CC=C5)NC(=O)C6=CN=C(C=C6)N + NC(=O)Nc1cc(-c2cccc(F)c2)sc1C(=O)N[C@H]1CCCNC1 [AZD7762] (partner 0.2 µM)
Summary of the method: (§1)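 Relative viability divides the nuclei count in treated wells by that in vehicle wells. Lung cancer cell lines were seeded in 1536-well plates, dosed by pin tool the next day, and fixed and stained after 5 days in one step with final 0.05% Triton X-100, 1% formaldehyde and 1 ug/ml Hoechst. Dosing was a single drug or a fixed anchor-drug dose plus five library-drug doses (not always all listed) in √10 steps, and values are medians of duplicate plates imaged at 4×.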

[2] = compound: CN1CCC(CNc2ccc3ncc(-c4cccc(OC(F)(F)F)c4)n3n2)CC1 [SGI-1776] + CC(=O)c1c(C)c2cnc(Nc3ccc(N4CCNCC4)cn3)nc2n(C2CCCC2)c1=O [Palbociclib] (partner 0.5 µM)
Summary of the method: as §1

[3] = compound: Nc1ccccc1NC(=O)c1ccc(CNC(=O)OCc2cccnc2)cc1 [Entinostat] + CC(=O)c1c(C)c2cnc(Nc3ccc(N4CCNCC4)cn3)nc2n(C2CCCC2)c1=O [Palbociclib] (partner 0.5 µM)
Summary of the method: as §1

[4] = compound: C1COCCN1C2=NC(=NC3=C2OC4=C3C=CC=N4)C5=CC(=CC=C5)NC(=O)C6=CN=C(C=C6)N + CC1(C)CCC(c2ccc(Cl)cc2)=C(CN2CCN(c3ccc(C(=O)NS(=O)(=O)c4ccc(N[C@H](CCN5CCOCC5)CSc5ccccc5)c(S(=O)(=O)C(F)(F)F)c4)cc3)CC2)C1 [Navitoclax] (partner 0.5 µM)
Summary of the method: as §1

Cell Line | relative viability ([1]; first compound 0.02 µM) | relative viability ([1]; first compound 0.06325 µM) | relative viability ([1]; first compound 0.2 µM) | relative viability ([1]; first compound 0.6325 µM) | relative viability ([1]; first compound 2 µM) | relative viability ([2]; first compound 0.08 µM) | relative viability ([2]; first compound 0.8 µM) | relative viability ([2]; first compound 2.53 µM) | relative viability ([2]; first compound 8 µM) | relative viability ([3]; first compound 0.02 µM) | relative viability ([3]; first compound 0.06325 µM) | relative viability ([3]; first compound 0.2 µM) | relative viability ([3]; first compound 0.6325 µM) | relative viability ([3]; first compound 2 µM) | relative viability ([4]; first compound 0.02 µM) | relative viability ([4]; first compound 0.06325 µM) | relative viability ([4]; first compound 0.2 µM) | relative viability ([4]; first compound 0.6325 µM) | relative viability ([4]; first compound 2 µM)
SW 900 | 0.63 | 0.606 | 0.505 | 0.522 | 0.429 | 0.599 | 0.633 | 0.571 | 0.395 | 0.547 | 0.582 | 0.576 | 0.509 | 0.344 |  |  |  |  | 
NCI-H1944 | 0.568 | 0.436 | 0.398 | 0.389 | 0.381 | 0.346 | 0.312 | 0.303 | 0.279 | 0.301 | 0.286 | 0.234 | 0.223 | 0.176 | 1.03 | 1.04 | 0.957 | 0.841 | 0.858
NCI-H838 | 0.95 | 0.967 | 0.999 | 0.827 | 0.755 | 0.228 | 0.222 | 0.204 | 0.155 | 0.254 | 0.224 | 0.28 | 0.236 | 0.171 | 0.92 | 1.14 | 1.09 | 0.946 | 0.437
NCI-H1651 | 0.507 | 0.563 | 0.476 | 0.461 | 0.36 | 0.504 | 0.497 | 0.522 | 0.439 | 0.549 | 0.535 | 0.617 | 0.533 | 0.45 | 1.33 | 1.18 | 0.984 | 1.15 | 0.614
HCC-827 | 0.191 | 0.184 | 0.167 | 0.202 | 0.198 | 0.504 | 0.513 | 0.509 | 0.383 | 0.407 | 0.436 | 0.336 | 0.311 | 0.184 | 1.02 | 1.07 | 1.08 | 1.05 | 1.07
HCC-366 | 0.329 | 0.419 | 0.213 | 0.216 | 0.174 | 0.395 | 0.476 | 0.368 | 0.33 | 0.344 | 0.348 | 0.133 | 0.111 | 0.0439 | 1.13 | 1.21 | 1 | 1.11 | 0.526
HARA | 0.382 | 0.41 | 0.305 | 0.403 | 0.359 | 0.308 | 0.289 | 0.261 | 0.264 | 0.301 | 0.298 | 0.258 | 0.272 | 0.266 | 1.2 | 1.17 | 1.21 | 1.19 | 0.897
NCI-H441 | 0.96 | 1.17 | 1.1 | 1.09 | 0.738 | 0.204 | 0.219 | 0.235 | 0.164 | 0.218 | 0.231 | 0.238 | 0.171 | 0.129 | 0.546 | 0.566 | 0.571 | 0.665 | 0.297
NCI-H1299 |  |  |  |  |  |  |  |  |  |  |  |  |  |  | 1.04 | 1.05 | 1.01 | 1.07 | 0.976
RERF-LC-KJ | 0.882 | 1.18 | 0.997 | 0.945 | 0.794 | 1.01 | 1.06 | 1.07 | 0.748 | 1.06 | 1.09 | 1 | 0.584 | 0.278 | 0.966 | 0.995 | 0.759 | 1 | 0.712
CAL-12T | 0.632 | 0.617 | 0.632 | 0.673 | 0.49 | 0.425 | 0.518 | 0.641 | 0.418 | 0.516 | 0.602 | 0.637 | 0.384 | 0.266 | 1.06 | 1.41 | 1.23 | 1.11 | 0.883
COR-L 105 |  |  |  |  |  | 0.477 | 0.388 | 0.396 | 0.355 | 0.376 | 0.406 | 0.38 | 0.43 | 0.355 | 0.805 | 0.754 | 0.69 | 0.531 | 0.584
NCI-H2405 | 0.829 | 0.724 | 0.716 | 0.673 | 0.483 | 0.553 | 0.516 | 0.484 | 0.44 | 0.515 | 0.531 | 0.571 | 0.532 | 0.453 | 0.819 | 0.927 | 0.904 | 0.931 | 0.721
NCI-H2228 |  |  |  |  |  | 0.787 | 1.1 | 0.715 | 0.537 | 0.617 | 0.747 | 0.691 | 0.35 | 0.244 | 0.959 | 1.31 | 0.783 | 1.3 | 0.348
PC-14 | 0.349 | 0.352 | 0.242 | 0.332 | 0.23 | 0.573 | 0.448 | 0.436 | 0.0558 | 0.521 | 0.493 | 0.449 | 0.157 | 0.0723 | 1.09 | 1.06 | 1.02 | 1.01 | 0.465
IA-LM |  |  |  |  |  |  |  |  |  |  |  |  |  |  |  | 0.751 | 0.705 | 0.656 | 0.374
A549 |  |  |  |  |  |  |  |  |  |  |  |  |  |  | 1.37 | 1.22 | 1.13 | 1.18 | 0.668
NCI-H2342 | 0.498 | 0.525 | 0.476 | 0.565 | 0.463 | 0.609 | 0.539 | 0.55 | 0.535 | 0.528 | 0.523 | 0.53 | 0.49 | 0.485 |  |  |  |  | 
SW 1573 |  |  |  |  |  | 0.441 | 0.351 | 0.363 | 0.245 | 0.322 | 0.486 | 0.434 | 0.428 | 0.311 | 1.02 | 1.01 | 0.856 | 0.912 | 0.567
NCI-H2087 | 1.35 | 1.44 | 1.32 | 1.17 | 0.647 | 0.299 | 0.231 | 0.293 | 0.204 | 0.252 | 0.209 | 0.174 | 0.0887 | 0.0971 | 1.02 | 1.03 | 0.925 | 0.918 | 0.608
